Drawing on patent US11566028B2, “Bicyclic heterocycles as FGFR inhibitors” (Incyte Corporation, priority 2019, dated 2023), this text covers IC50 for 21 compounds.

Holding throughout (type): biochemical
Test [1] deals with FGFR2 (Homo sapiens (Human), UniProt P21802). Nature of the test: FGFR Enzymatic Assay (FRET peptide phosphorylation), FGFR2.
Test [2] has as its target FGFR1 (Homo sapiens (Human), UniProt P11362). Nature of the test: FGFR Enzymatic Assay (FRET peptide phosphorylation), FGFR1. Conditions: pre-incubated for 4 hours.
The target in test [3] is FGFR4 (Homo sapiens (Human), UniProt P22455). In words: FGFR Enzymatic Assay (FRET peptide phosphorylation), FGFR4.
The target in test [4] is wild-type un-phosphorylated FGFR3 protein (Homo sapiens (Human), UniProt P22607). In words: FGFR Enzymatic Assay (FRET peptide phosphorylation), FGFR3. Conditions: pre-incubated for 4 hours.

Where two headings read alike, the source gives them in different places.

Sequence of wild-type un-phosphorylated FGFR3 protein (P22607 23-806): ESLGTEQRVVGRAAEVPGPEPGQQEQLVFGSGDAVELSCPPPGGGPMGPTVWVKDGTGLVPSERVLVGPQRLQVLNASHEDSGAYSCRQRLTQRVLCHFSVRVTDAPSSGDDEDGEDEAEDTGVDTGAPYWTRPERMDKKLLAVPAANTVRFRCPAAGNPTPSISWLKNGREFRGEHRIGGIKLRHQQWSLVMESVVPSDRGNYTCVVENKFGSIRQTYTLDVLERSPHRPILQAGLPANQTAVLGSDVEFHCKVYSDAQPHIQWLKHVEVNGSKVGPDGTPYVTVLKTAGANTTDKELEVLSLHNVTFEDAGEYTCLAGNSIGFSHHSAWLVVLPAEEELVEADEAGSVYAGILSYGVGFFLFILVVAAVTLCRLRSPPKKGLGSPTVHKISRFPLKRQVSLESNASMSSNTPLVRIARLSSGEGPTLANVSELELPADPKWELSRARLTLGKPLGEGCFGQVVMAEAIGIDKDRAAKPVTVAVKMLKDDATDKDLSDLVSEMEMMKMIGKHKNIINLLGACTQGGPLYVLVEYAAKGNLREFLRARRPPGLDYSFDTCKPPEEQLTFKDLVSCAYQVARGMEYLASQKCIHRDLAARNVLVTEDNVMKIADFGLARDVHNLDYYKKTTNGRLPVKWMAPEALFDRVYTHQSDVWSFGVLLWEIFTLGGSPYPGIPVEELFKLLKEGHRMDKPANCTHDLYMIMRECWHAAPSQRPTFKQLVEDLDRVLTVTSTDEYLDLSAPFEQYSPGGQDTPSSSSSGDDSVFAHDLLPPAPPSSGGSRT
Sequence of FGFR4 (P22455 22-802): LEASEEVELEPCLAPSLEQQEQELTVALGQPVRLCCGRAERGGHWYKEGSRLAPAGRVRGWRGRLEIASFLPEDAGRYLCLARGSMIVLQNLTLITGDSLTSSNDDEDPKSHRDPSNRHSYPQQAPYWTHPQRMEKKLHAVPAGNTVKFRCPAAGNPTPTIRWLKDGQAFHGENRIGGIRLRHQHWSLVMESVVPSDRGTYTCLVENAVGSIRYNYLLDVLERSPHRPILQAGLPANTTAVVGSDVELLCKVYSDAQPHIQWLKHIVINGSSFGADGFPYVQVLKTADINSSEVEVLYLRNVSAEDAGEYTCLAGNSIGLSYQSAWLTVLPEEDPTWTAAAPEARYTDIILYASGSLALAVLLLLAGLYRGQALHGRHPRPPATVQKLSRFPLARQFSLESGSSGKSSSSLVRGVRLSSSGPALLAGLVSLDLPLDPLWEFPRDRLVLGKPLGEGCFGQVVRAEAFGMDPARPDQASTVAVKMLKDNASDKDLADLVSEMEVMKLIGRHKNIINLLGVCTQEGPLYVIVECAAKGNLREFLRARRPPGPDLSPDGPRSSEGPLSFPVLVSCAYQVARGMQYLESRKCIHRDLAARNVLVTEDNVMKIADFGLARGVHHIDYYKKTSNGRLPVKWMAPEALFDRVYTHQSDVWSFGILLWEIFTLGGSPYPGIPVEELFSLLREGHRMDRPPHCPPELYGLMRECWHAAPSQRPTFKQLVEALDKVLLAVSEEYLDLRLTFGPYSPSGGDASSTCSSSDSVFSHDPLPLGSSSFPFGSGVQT
Sequence of FGFR1 (P11362 22-822): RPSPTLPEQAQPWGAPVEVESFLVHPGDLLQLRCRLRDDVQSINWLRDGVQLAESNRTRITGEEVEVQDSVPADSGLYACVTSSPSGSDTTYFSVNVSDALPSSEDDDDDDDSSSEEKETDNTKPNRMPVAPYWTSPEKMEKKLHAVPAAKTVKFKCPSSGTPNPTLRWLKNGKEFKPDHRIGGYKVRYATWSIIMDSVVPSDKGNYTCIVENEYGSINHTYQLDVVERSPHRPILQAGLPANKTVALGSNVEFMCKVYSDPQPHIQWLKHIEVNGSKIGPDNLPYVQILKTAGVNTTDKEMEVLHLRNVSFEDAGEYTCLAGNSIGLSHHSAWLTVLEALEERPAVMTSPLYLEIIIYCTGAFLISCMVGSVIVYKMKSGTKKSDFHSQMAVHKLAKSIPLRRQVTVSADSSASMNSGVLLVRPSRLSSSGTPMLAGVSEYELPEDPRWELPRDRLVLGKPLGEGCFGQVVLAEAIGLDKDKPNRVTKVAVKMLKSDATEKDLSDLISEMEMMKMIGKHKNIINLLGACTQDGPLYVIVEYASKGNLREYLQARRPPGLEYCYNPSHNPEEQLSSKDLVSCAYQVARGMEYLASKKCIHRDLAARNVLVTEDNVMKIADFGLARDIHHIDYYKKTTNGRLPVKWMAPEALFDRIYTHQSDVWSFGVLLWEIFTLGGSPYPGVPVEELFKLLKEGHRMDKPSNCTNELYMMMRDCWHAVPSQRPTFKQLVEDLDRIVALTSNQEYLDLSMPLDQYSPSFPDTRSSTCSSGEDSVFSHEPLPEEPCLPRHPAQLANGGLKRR
Sequence of FGFR2 (P21802 22-821): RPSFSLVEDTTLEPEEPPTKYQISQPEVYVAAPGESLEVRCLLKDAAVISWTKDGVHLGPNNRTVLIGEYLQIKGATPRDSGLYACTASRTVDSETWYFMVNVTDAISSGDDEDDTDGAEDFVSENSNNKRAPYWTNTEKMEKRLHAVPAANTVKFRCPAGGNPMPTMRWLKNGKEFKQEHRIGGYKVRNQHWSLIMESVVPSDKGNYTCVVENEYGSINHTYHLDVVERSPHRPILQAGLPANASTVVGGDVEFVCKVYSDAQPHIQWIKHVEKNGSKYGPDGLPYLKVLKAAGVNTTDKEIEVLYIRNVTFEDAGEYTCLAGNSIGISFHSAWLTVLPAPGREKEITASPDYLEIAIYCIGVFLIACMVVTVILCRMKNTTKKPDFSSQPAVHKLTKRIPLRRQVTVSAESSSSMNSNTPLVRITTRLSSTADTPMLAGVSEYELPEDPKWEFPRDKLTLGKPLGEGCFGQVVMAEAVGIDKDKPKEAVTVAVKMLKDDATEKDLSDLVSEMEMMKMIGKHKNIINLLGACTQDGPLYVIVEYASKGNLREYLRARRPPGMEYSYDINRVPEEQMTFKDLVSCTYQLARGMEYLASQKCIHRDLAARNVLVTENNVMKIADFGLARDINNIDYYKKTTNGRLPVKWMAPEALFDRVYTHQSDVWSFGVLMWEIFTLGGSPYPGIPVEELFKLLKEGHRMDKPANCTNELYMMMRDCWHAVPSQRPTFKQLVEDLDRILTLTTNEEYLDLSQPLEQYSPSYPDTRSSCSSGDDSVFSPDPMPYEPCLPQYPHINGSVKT

By IC50 is commonly meant the concentration that inhibits the measured activity by half. Lower therefore signals greater potency. In the case of `CNC(=O)c1cncc(-c2cnn3cc(-c4cnn(C)c4)c(OC4CCOC4)nc23)c1` (racemic) [Example 3, N-Methyl-5-(6-(1-methyl-1H-pyrazol-4-yl)-5-((tetrahydrofuran-3-yl)oxy)pyrazolo[1,5-a]pyrimidin-3-yl)nicotinamide], the results for the half-maximal inhibitory concentration (IC50) in test [1] (pre-incubated for 4 hours), in test [2] and in test [3] (pre-incubated for 4 hours) were less than 10 nM, 30 to 200 nM and not below 200 nM, respectively.
Consider `CNC(=O)c1cc(C)c(F)c(-c2cnn3cc(-c4cnn(C)c4)c(OC4CCOC4)nc23)c1` (racemic) [Example 4, 4-Fluoro-N,3-dimethyl-5-(6-(1-methyl-1H-pyrazol-4-yl)-5-((tetrahydrofuran-3-yl)oxy)pyrazolo[1,5-a]pyrimidin-3-yl)benzamide], for which the IC50 was less than 10 nM in test [4], less than 10 nM in test [1] (pre-incubated for 4 hours), 30 to 200 nM in test [2] and 30 to 200 nM in test [3] (pre-incubated for 4 hours).
For `Cn1cc(-c2cn3ncc(-c4cccc5[nH]ncc45)c3nc2O[C@H]2CCOC2)cn1` [Example 33, (S)-3-(1H-Indazol-4-yl)-6-(1-methyl-1H-pyrazol-4-yl)-5-((tetrahydrofuran-3-yl)oxy)pyrazolo[1,5-a]pyrimidine], the concentration for half-maximal inhibition (IC50) in test [4] is less than 10 nM; in test [1] (pre-incubated for 4 hours) it was less than 10 nM; in test [2], 10 to 30 nM; in test [3] (pre-incubated for 4 hours), 30 to 200 nM.
As for `CNC(=O)c1cc(C)c(F)c(-c2cnn3cc(-c4cnn(C5CCN(C)CC5)c4)c(N[C@H]4CCOC4)nc23)c1` [Example 34, (S)-4-Fluoro-N,3-dimethyl-5-(6-(1-(1-methylpiperidin-4-yl)-1H-pyrazol-4-yl)-5-((tetrahydrofuran-3-yl)amino)pyrazolo[1,5-a]pyrimidin-3-yl)benzamide], the concentration for half-maximal inhibition (IC50) was less than 10 nM in test [4], less than 10 nM in test [1] (pre-incubated for 4 hours), 10 to 30 nM in test [2] and 30 to 200 nM in test [3] (pre-incubated for 4 hours).
Regarding `CNC(=O)c1cc(C)c(F)c(-c2cnn3cc(-c4cnn(C5CN(C)C5)c4)c(N[C@H]4CCOC4)nc23)c1` [Example 35, (S)-4-Fluoro-N,3-dimethyl-5-(6-(1-(1-methylazetidin-3-yl)-1H-pyrazol-4-yl)-5-((tetrahydrofuran-3-yl)amino)pyrazolo[1,5-a]pyrimidin-3-yl)benzamide], the concentration for half-maximal inhibition (IC50) in test [4] is less than 10 nM; in test [1] (pre-incubated for 4 hours), less than 10 nM; in test [2], 10 to 30 nM; in test [3] (pre-incubated for 4 hours), not below 200 nM.
Consider `CNC(=O)c1cc(C)c(F)c(-c2cnn3cc(-c4cnn(CC(C)(C)O)c4)c(N[C@H]4CCOC4)nc23)c1` [Example 40, (S)-4-Fluoro-3-(6-(1-(2-hydroxy-2-methylpropy1)-1H-pyrazol-4-y1)-5-((tetrahydrofuran-3-yl)amino)pyrazolo[1,5-a]pyrimidin-3-y1)-N,5-dimethylbenzamide], for which the 50% inhibitory concentration (IC50) in test [4] is less than 10 nM; in test [1], less than 10 nM; in test [2], 10 to 30 nM; in test [3], 30 to 200 nM.
As to `CNC(=O)c1cc(C)c(F)c(-c2cnn3cc(-c4cnn(C5CCOC5)c4)c(N[C@H]4CCOC4)nc23)c1` (stereo partly drawn) [Example 41, 4-Fluoro-N,3-dimethyl-5-(6-(1-(tetrahydrofuran-3-yl)-1H-pyrazol-4-y1)-5-(((S)-tetrahydrofuran-3-yl)amino)pyrazolo[1,5-a]pyrimidin-3-yl)benzamide], the IC50 in test [4] was less than 10 nM; in test [1] it was less than 10 nM; in test [2] it was 30 to 200 nM; in test [3], 30 to 200 nM.
As to `CNC(=O)c1cc(C)c(F)c(-c2cnn3cc(-c4cnc(C)o4)c(N[C@H]4CCOC4)nc23)c1` [Example 42, (S)-4-Fluoro-N,3-dimethyl-5-(6-(2-methyloxazol-5-y1)-5-((tetrahydrofuran-3-yl)amino)pyrazolo[1,5-a]pyrimidin-3-yl)benzamide], the IC50 in test [4] is less than 10 nM; in test [1], less than 10 nM; in test [2], 10 to 30 nM; in test [3], 30 to 200 nM.
With `CCn1ccc(-c2cn3ncc(-c4cc(C(=O)NC)cc(C)c4F)c3nc2N[C@H]2CCOC2)n1` [Example 43, (S)-3-(6-(1-Ethy1-1H-pyrazol-3-y1)-5-((tetrahydrofuran-3-yl)amino)pyrazolo[1,5-a]pyrimidin-3-y1)-4-fluoro-N,5-dimethylbenzamide], the half-maximal inhibitory concentration (IC50) in test [4] is less than 10 nM; in test [1], less than 10 nM; in test [2] it was 10 to 30 nM; in test [3], 30 to 200 nM.
With `CCS(=O)(=O)c1cc(F)c(F)c(-c2cnn3cc(-c4cnn(C)c4)c(N[C@H]4CCOC4)nc23)c1` [Example 45, (S)-3-(5-(Ethylsulfonyl)-2,3-difluorophenyl)-6-(1-methyl-1H-pyrazol-4-yl)-N-(tetrahydrofuran-3-yl)pyrazolo[1,5-a]pyrimidin-5-amine], the half-inhibitory concentration (IC50) is 10 to 30 nM in test [2] and not below 200 nM in test [3] (pre-incubated for 4 hours).
As to `CCS(=O)(=O)c1cc(F)c(F)c(-c2cnn3cc(-c4cnn(C)c4)c(O[C@H]4CCOC4)nc23)c1` [Example 46, (S)-3-(5-(Ethylsulfonyl)-2,3-difluorophenyl)-6-(1-methyl-1H-pyrazol-4-yl)-5-((tetrahydrofuran-3-yl)oxy)pyrazolo[1,5-a]pyrimidine], the half-inhibitory concentration (IC50) in test [1] (pre-incubated for 4 hours) is less than 10 nM; in test [2], 10 to 30 nM; in test [3] (pre-incubated for 4 hours) it was not below 200 nM.
Consider `Cn1cc(-c2cn3ncc(-c4cccc(-c5cc[nH]n5)c4)c3nc2O[C@H]2CCOC2)cn1` [Example 51, (S)-3-(3-(1H-Pyrazol-3-yl)phenyl)-6-(1-methyl-1H-pyrazol-4-yl)-5-((tetrahydrofuran-3-yl)oxy)pyrazolo[1,5-a]pyrimidine], for which the IC50 was less than 10 nM in test [4], less than 10 nM in test [1] (pre-incubated for 4 hours), 10 to 30 nM in test [2] and not below 200 nM in test [3] (pre-incubated for 4 hours).
For the compound `CCn1cc(-c2cn3ncc(-c4cc(C(=O)NC)cc(F)c4F)c3nc2N[C@H]2CCOC2)cn1` [Example 53, (S)-3-(6-(1-Ethy1-1H-pyrazol-4-y1)-5-((tetrahydrofuran-3-yl)amino)pyrazolo[1,5-a]pyrimidin-3-y1)-4,5-difluoro-N-methylbenzamide], the concentration for half-maximal inhibition (IC50) is less than 10 nM in test [4], less than 10 nM in test [1], 10 to 30 nM in test [2] and more than 200 nM in test [3].
With `CNC(=O)c1cc(F)c(F)c(-c2cnn3cc(-c4cnn(CCN5CCOCC5)c4)c(N[C@H]4CCOC4)nc23)c1` [Example 55, (S)-3,4-Difluoro-N-methy1-5-(6-(1-(2-morpholinoethyl)-1H-pyrazol-4-y1)-5-((tetrahydrofuran-3-yl)amino)pyrazolo[1,5-a]pyrimidin-3-yl)benzamide], the half-inhibitory concentration (IC50) in test [4] was less than 10 nM; in test [1] it was less than 10 nM; in test [2], less than 10 nM; in test [3], 30 to 200 nM.
Turning to `CNC(=O)c1cc(F)c(F)c(-c2cnn3cc(-c4cnc(C)o4)c(N[C@H]4CCOC4)nc23)c1` [Example 58, (S)-3,4-Difluoro-N-methyl-5-(6-(2-methyloxazol-5-y1)-5-((tetrahydrofuran-3-yl)amino)pyrazolo[1,5-a]pyrimidin-3-yl)benzamide], the concentration for half-maximal inhibition (IC50) in test [4] is less than 10 nM; in test [1], less than 10 nM; in test [2] it was less than 10 nM; in test [3], 30 to 200 nM.
With `CNC(=O)c1cncc(-c2cnn3cc(-c4ccn(C)n4)c(N[C@H]4CCOC4)nc23)c1` [Example 59, (S)—N-Methyl-5-(6-(1-methyl-1H-pyrazol-3-yl)-5-((tetrahydrofuran-3-yl)amino)pyrazolo[1,5-a]pyrimidin-3-yl)nicotinamide], the 50% inhibitory concentration (IC50) in test [4] was less than 10 nM; in test [1] (pre-incubated for 4 hours), less than 10 nM; in test [2] it was less than 10 nM; in test [3] (pre-incubated for 4 hours), 10 to 30 nM.
Regarding `CNC(=O)c1cncc(-c2cnn3cc(-c4cnn(C)n4)c(N[C@H]4CCOC4)nc23)c1` [Example 60, (S)—N-Methyl-5-(6-(2-methyl-2H-1,2,3-triazol-4-yl)-5-((tetrahydrofuran-3-yl)amino)pyrazolo[1,5-a]pyrimidin-3-yl)nicotinamide], the IC50 in test [4] was less than 10 nM; in test [1] (pre-incubated for 4 hours), less than 10 nM; in test [2] it was 30 to 200 nM; in test [3] (pre-incubated for 4 hours) it was not below 200 nM.
On to `CCNC(=O)c1cncc(-c2cnn3cc(-c4ccn(C)n4)c(N[C@H]4CCOC4)nc23)c1` [Example 61, (S)—N-Ethyl-5-(6-(1-methyl-1H-pyrazol-3-yl)-5-((tetrahydrofuran-3-yl)amino)pyrazolo[1,5-a]pyrimidin-3-yl)nicotinamide], for which the concentration for half-maximal inhibition (IC50) was less than 10 nM in test [4], less than 10 nM in test [1] (pre-incubated for 4 hours), 30 to 200 nM in test [2] and 30 to 200 nM in test [3] (pre-incubated for 4 hours).
`CC(C)NC(=O)c1cncc(-c2cnn3cc(-c4ccn(C)n4)c(N[C@H]4CCOC4)nc23)c1` [Example 62, (S)—N-Isopropyl-5-(6-(1-methyl-1H-pyrazol-3-yl)-5-((tetrahydrofuran-3-yl)amino)pyrazolo[1,5-a]pyrimidin-3-yl)nicotinamide]: the IC50 in test [1] (pre-incubated for 4 hours) was 10 to 30 nM; in test [2] it was 30 to 200 nM; in test [3] (pre-incubated for 4 hours) it was not below 200 nM.
For the compound `[2H]C([2H])([2H])NC(=O)c1cncc(-c2cnn3cc(-c4cnn(C(C)C)c4)c(O[C@H]4CCOC4)nc23)c1` [Example 63, (S)-5-(6-(1-Isopropyl-1H-pyrazol-4-yl)-5-((tetrahydrofuran-3-yl)oxy)pyrazolo[1,5-a]pyrimidin-3-yl)-N-(methyl-d3)nicotinamide], in test [3] (pre-incubated for 4 hours), the half-maximal inhibitory concentration (IC50) fell in the range of 30 to 200 nM.
`CNC(=O)c1cc(C)c(F)c(-c2cnn3cc(-c4cnc(N5CCN(C)CC5)o4)c(N[C@H]4CCOC4)nc23)c1` [Example 70, (S)-4-Fluoro-N,3-dimethyl-5-(6-(2-(4-methylpiperazin-1-yl)oxazol-5-yl)-5-((tetrahydrofuran-3-yl)amino)pyrazolo[1,5-a]pyrimidin-3-yl)benzamide]: the IC50 in test [4] is less than 10 nM; in test [1] (pre-incubated for 4 hours) it was less than 10 nM; in test [2], 30 to 200 nM.
